In US9970935B2, “Uses of GLI1 in detecting tissue fibrosis” (THE BRIGHAM AND WOMEN'S HOSPITAL, INC., priority 2014, dated 2018):
Entries after “also recorded” stand apart in the source; their conditions may differ.

Legend:
UUO kidneys = test: Unilateral ureteral obstruction (UUO) kidney fibrosis model; type: in vivo, mouse
lung = conditions: in vivo; cited from earlier work
human colon cancer cells = conditions: cited from earlier work
Gli1 and Gli2 = conditions: cited from earlier work
10T1/2 cells [1] = test: Flow cytometric cell-cycle analysis of 10T1/2 cells; type: cell-based, mouse; conditions: for cell-cycle distribution after siRNA knockdown: siRNA 5 nM vs scrambled siRNA
10T1/2 cells [2] = test: siRNA knockdown in 10T1/2 cells, mRNA and protein levels; type: cell-based, mouse
Protocol: For siRNA experiments cells were transfected with siRNA against Gli1 (LIFE SCIENCES, siRNA ID: s66723, Sequence 5'3' Sense: […] NO: 11), Antisense: […] NO: 12)), Gli2 (LIFE SCIENCES, siRNA ID: s66726, Sequence 5'3' Sense: […] NO: 13), Antisense: […] Transfection was performed with a final concentration of 5 nM of each siRNA according to the manufacturer instructions using LIPOFECTAMINE RNAiMAX transfection reagent (LIFE TECHNOLOGIES, #3778075). 72 hours after transfection cells were harvested for RNA or protein isolation. […] Kidney tissue or cell-pellets were harvested and immediately snap frozen in liquid nitrogen. RNA was extracted according to the manufacturer instructions using the RNeasy Mini Kit (QIAGEN) and 600 ng of total RNA was reverse transcribed with iScript (BIORAD). Quantitative polymerase chain reactions were carried out with iQ-SYBR Green supermix (BIORAD) and the BIORAD CFX96 Real Time System with the C1000 Touch Thermal Cycler. […] Glyceraldehyde-3-phosphate dehydrogenase (GAPDH) was used as a housekeeping gene. Data was analyzed using the 2-ΔΔct method. Kidney tissue was snap frozen in liquid nitrogen and stored at -80° C. immediately after mice were killed. Tissue samples were homogenized in lysis buffer containing 10 mM HEPES, pH 7.4, 0.32M sucrose, 2 mM EDTA, 1 mM DTT, 1 mM PMSF and 1 protease inhibitor tablet per 10 ml of lysis buffer (ROCHE Cat. No. 11836153001). Samples were sonicated and protein concentration was determined by the Bradford Assay using BIO-RAD Protein Assay Dye (BIORAD, Cat. No. 500-0006). 10-40 μg of protein from lysates was loaded on a 7.5 or 10% polyacrylamide gel and separated by SDS electrophoresis. […] Following incubation with primary antibody blots were washed probed with respective horseradish-peroxidase conjugated secondary antibodies at 1:5000 (DAKO, Cat. No. P0447, […]) for 1 hour at room temperature and then visualized using the Western Lightning ECL kit from PERKINELMER (#NEL100001EA). Quantification of western bands was performed using ImageJ (NIH).

Gli1+ MSC = test: Myofibroblast differentiation of Gli1+ MSC in vitro upon TGF-β; type: cell-based, mouse; conditions: for αSMA expression: Gli1+ MSC from bone marrow / bone chips or heart
10T1/2 cells [3] = test: Western blot of whole cell-lysate from 10T1/2 cells treated with darinaparsin; type: cell-based, mouse; conditions: darinaparsin 0.5 μM, 72 hours
Excerpt: All cell-lines used within this study were freshly ordered from ATCC and routinely checked for mycoplasma contamination in the inventors' laboratory. 10T1/2 cells (ATCC) and cultured in Basal Medium Eagle (BME, GIBCO; LIFE TECHNOLOGIES) supplemented with 10% fetal bovine serum (FBS), penicillin and streptomycin and 2 mmol/L glutamine (GIBCO). Sonic hedgehog conditioned media was produced from supernatant of confluent Cos7 cells stably transfected with pcDNA3-N-Shh or pcDNA3 control plasmid. For Western blot experiments cells were grown on 10 cm dishes, serum starved in 0.5% FBS for 12 hours and then incubated with darinaparsin (0.5 μM) or vehicle with either Shh preconditioned medium or Cos7 control media (5× i.e., 2 ml preconditioned media in 8 ml BMW 0.5% FBS) for 72 hours.
Kidney tissue was snap frozen in liquid nitrogen and stored at −80° C. immediately after mice were killed. Tissue samples were homogenized in lysis buffer containing 10 mM HEPES, pH 7.4, 0.32M sucrose, 2 mM EDTA, 1 mM DTT, 1 mM PMSF and 1 protease inhibitor tablet per 10 ml of lysis buffer (ROCHE Cat. No. 11836153001). Samples were sonicated and protein concentration was determined by the Bradford Assay using BIO-RAD Protein Assay Dye (BIORAD, Cat. No. 500-0006). 10-40 μg of protein from lysates was loaded on a 7.5 or 10% polyacrylamide gel and separated by SDS electrophoresis. Proteins were transferred to a IMMOBILON membrane (MILLIPORE) blocked in 5% milk in PBST, probed overnight at 4° C. with the primary antibodies: mouse anti-αSMA at 1:4000 (SIGMA, Cat. #A2547), rabbit anti-fibronectin at 1:4000 (ABCAM, #ab23750), rabbit anti-p21 at 1:200 (SANTA CRUZ BIOTECHNOLOGIES, #sc-471), rabbit anti-phospho-retinoblastoma(72) at 1:1000 (CELL SIGNALING #9307S, Ser780), rat anti-Gli1 at 1:1000 (R&D Systems #MAB3324), goat anti-Gli2 at 1:500 (R&D Systems #AF3635), rabbit anti-Cyclin Eat 1:200 (SANTA CRUZ #sc-481), rabbit anti-Cyclin A at 1:200 (SANTA CRUZ BIOTECHNOLOGIES #sc-751), rabbit anti-HA-Tag at 1:5000 (CELL SIGNALING #3724), mouse anti-c-myc (DSHB, Iowa, 9E 10) and rabbit anti-GAPDH at 1:4000 (BETHYL LABORATORIES, #A300-641A). Following incubation with primary antibody blots were washed probed with respective horseradish-peroxidase conjugated secondary antibodies at 1:5000 (DAKO, Cat. No. P0447, P0448, P0450) for 1 hour at room temperature and then visualized using the Western Lightning ECL kit from PERKINELMER (#NEL100001EA). Quantification of western bands was performed using ImageJ (NIH).

kidney = conditions: mouse, in vivo
[4] = system: ATO resistant myeloma cell-lines; conditions: cited from earlier work
Gli2 = target: T1, Gli2 (Homo sapiens, UniProt P10070); test: Gli2 darinaparsin binding assay (GST agarose bead pull-down); conditions: 293T cells; for binding to Gli2 (pull-down of myc-tagged Gli2 with GST beads): 0.5 μM darinaparsin or vehicle
T1 construct: 293T cells were transfected with full length Gli2-myc and treated with darinaparsin (DAR) or vehicle (VEH); host or cells: Human 293T/17 (HEK 293T/17, ATCC)
Protocol: Human 293T/17 (HEK 293T/17, freshly ordered from ATCC) were grown in a 10 cm cell-culture dish until 80% confluent and transfected with pCS2-MT Gli2 FL kindly provided by Dr. Roessler (49) (ADDGENE Plasmid 17648: pCS2-MT GLI2 FL) using Lipofectamine 2000 (LIFE TECHNOLOGIES) according to the manufacturer instructions. 72 hours after transfection the cells were treated with 0.5 μM darinaparsin or vehicle in DMEM 10% FBS for 12 hours, thereafter cells were resuspended in cold (4° C.) PBS and washed twice with PBS. After centrifugation (1500 rpm, 5 minutes) 1 ml of IP-Lysis Buffer (THERMO SCIENTIFIC)+proteinase inhibtior (ROCHE, #1183617000T) was added to the cell pellet and the suspension was homogenized using an insulin syringe. After centrifugation of the protein-solution (15 min, 12000 rpm) the supernatant was transferred into a fresh tube, an aliquot of 100 μl was taken as input control (FIG. 24) and the solution was incubated with 50 μl GST-Agarose beads (PIERCE GST Agarose #20211, THERMO SCIENTIFIC) for 4 hours on a rotator at 4° C. Thereafter the bead-protein solution was centrifuged (5000 rpm, 3 min) and the supernatant was taken as outflow control (FIG. 24), the agarose beads were washed three times by adding 1 ml of the above mentioned IP-Lysis buffer containing proteinase inhibitors followed by vortexing and centrifugation (5000 rpm, 3 min), the supernatant after each centrifugation was discarded. After 3 washes, the GST beads were cooked at 96° C. for 7 minutes in 100 μl Laemmli buffer (BIO-RAD). All protein samples (input, outflow and the final GST bead purification solution) were analysed by western blot with an antibody against c-myc (mouse monoclonal, 9E 10, DSHB, Iowa) the membrane was stained with Ponceau-S (SIGMA) to show specificity (FIG. 6H).

[5] = cited from earlier work
[6] = GANT61 after UUO, UUO kidneys vs vehicle
[7] = GANT61 after UUO, listed as Gant61
[8] = siRNA 5 nM, 72 hours after transfection

T1 sequence (P10070 whole entry): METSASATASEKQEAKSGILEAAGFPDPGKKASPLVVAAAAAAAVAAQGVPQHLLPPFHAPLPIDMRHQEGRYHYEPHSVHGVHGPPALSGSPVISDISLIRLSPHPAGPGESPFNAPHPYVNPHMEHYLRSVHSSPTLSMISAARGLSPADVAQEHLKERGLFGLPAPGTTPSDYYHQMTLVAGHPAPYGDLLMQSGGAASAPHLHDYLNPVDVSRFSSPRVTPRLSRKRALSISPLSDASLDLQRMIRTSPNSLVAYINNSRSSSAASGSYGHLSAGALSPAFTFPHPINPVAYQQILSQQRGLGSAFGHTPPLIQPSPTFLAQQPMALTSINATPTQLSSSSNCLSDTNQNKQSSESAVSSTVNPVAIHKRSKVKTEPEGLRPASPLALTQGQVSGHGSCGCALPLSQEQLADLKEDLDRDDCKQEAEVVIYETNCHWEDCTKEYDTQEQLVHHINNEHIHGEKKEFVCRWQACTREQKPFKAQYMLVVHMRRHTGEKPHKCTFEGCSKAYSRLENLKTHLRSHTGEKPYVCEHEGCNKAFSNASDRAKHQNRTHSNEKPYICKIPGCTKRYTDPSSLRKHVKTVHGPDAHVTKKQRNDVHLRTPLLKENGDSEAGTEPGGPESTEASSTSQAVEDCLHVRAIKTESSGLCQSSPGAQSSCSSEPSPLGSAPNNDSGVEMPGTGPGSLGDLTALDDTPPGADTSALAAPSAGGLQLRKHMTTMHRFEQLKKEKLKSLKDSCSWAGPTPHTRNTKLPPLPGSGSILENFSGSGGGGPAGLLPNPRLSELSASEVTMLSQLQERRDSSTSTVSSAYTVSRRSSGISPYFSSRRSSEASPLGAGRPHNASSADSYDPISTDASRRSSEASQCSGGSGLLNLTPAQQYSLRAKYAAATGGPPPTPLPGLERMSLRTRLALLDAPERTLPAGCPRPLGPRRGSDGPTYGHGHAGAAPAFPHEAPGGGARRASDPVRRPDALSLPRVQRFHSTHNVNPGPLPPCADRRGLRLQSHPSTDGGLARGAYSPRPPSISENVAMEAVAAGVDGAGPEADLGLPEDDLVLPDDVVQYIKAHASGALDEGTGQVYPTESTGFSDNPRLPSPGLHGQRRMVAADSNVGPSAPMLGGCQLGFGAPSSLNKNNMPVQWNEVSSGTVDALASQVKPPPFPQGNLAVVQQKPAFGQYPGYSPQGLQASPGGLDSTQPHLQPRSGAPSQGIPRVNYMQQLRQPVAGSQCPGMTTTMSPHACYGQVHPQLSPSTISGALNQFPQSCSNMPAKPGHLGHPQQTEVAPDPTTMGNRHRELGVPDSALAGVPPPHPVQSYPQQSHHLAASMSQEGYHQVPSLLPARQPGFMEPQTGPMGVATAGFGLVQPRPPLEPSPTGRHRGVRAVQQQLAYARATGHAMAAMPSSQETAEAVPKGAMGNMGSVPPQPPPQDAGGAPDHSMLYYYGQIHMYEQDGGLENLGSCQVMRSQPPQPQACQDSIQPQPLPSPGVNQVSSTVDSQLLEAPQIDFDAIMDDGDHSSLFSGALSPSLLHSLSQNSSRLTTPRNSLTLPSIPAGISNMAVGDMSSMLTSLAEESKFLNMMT

**Q.** Which “interstitial fibrosis (scoring of trichrome stained sections)” value (UUO kidneys; GANT61 50 mg/kg s.c. at day 1, 2, 3, 5, 7 and 9 after UUO, vs vehicle, 50 mg/kg) does the source give for `CN(C)c1ccccc1CN1CCCN(Cc2ccccc2N(C)C)C1c1ccncc1` [GANT61] here?
**A.** significantly reduced; also recorded: significantly less fibrosis

**Q.** What about the “Gli1 protein level of UUO kidneys” value (UUO kidneys; GANT61 after UUO) of the same compound?
**A.** significantly reduced

**Q.** What about the “Gli2 protein level of UUO kidneys” value (UUO kidneys; GANT61 after UUO) of the same compound?
**A.** significantly reduced

**Q.** And the “mRNA expression of hedgehog readout Gli1” value (UUO kidneys; GANT61 after UUO)?
**A.** reduced

**Q.** What about the “mRNA expression of hedgehog readout Ptch1” value (UUO kidneys; GANT61 after UUO) of the same compound?
**A.** reduced

**Q.** What about the “expression of fibrotic readout Coiled” value (UUO kidneys; [6]) of the same compound?
**A.** significantly reduced; also recorded: significant lower expression

**Q.** And the “expression of fibrotic readout fibronectin” value (UUO kidneys; [6])?
**A.** significantly reduced; also recorded: significant lower expression

**Q.** What about the “expression of fibrotic readout α-SMA” value (UUO kidneys; [6]) of the same compound?
**A.** significantly reduced; also recorded: significant lower expression

**Q.** What about the “mRNA expression of hedgehog readout Gli1” value (UUO kidneys; [7]) of the same compound?
**A.** significant reduction

**Q.** What about the “mRNA expression of hedgehog readout Ptch1” value (UUO kidneys; [7]) of the same compound?
**A.** significant reduction

**Q.** And the “fibrosis severity in bleomycin induced lung fibrosis” value (lung)?
**A.** decreased fibrosis severity

**Q.** What about the “cell cycle of human colon cancer cells” value (human colon cancer cells) of the same compound?
**A.** induced a G0/G1 arrest

**Q.** And the “p21 in human colon cancer cells” value (human colon cancer cells)?
**A.** upregulation

**Q.** Which “antagonism of Gli1 and Gli2” value (Gli1 and Gli2) does the source give for Arsenic trioxide [ATO] here?
**A.** antagonize both Gli1 and Gli2

**Q.** With “siRNA against Gli1: siRNA ID s66723, SEQ ID NO: 11 and 12 (chain 1 GCAGGUCUCCUAUCCUGAUTT; chain 2 NAUCAGGAUAGGAGACCUGCTG; chemistry not given here)” as the compound, how does the “cell-cycle distribution after siRNA knockdown” value (10T1/2 cells [1]) read?
**A.** had no effect

**Q.** What about the “mRNA and protein levels of Gli1” value (10T1/2 cells [2]; [8]) of the same compound?
**A.** reduced

**Q.** What does the source list for TGF-β?
**A.** αSMA expression (Gli1+ MSC): acquired expression; αSMA expression (Gli1+ MSC; listed as TGFβ): robust upregulation; induction of αSMA (Gli1+ MSC; bone marrow-derived Gli1+ MSC purified by FACS): 45 ×

**Q.** Which results are given for `C[As](C)SC[C@H](NC(=O)CC[C@H](N)C(=O)O)C(=O)NCC(=O)O` [darinaparsin, S-dimethylarsino-glutathione]?
**A.** Gli1 protein level (10T1/2 cells [3]): reduced; Gli2 protein level (10T1/2 cells [3]): reduced; p21 level (10T1/2 cells [3]): upregulation; p-Rb level (10T1/2 cells [3]): decreased levels; fibrotic readouts (UUO kidneys; mouse, in vivo): substantial reductions; BUN levels (kidney): lower; interstitial fibrosis (kidney): reduced; susceptibility of ATO resistant myeloma cell-lines [4]: susceptible; enrichment of other nonspecific proteins (Ponceau staining) (Gli2; 0.5 μM darinaparsin): did not result in enrichment; binding to Gli2 (pull-down of myc-tagged Gli2 with GST beads) (Gli2): binds directly to Gli2; binding to Gli2 (pull-down of myc-tagged Gli2 with GST beads) (Gli2; listed as DAR): able to pull down Gli2; cell-cycle effect of darinaparsin upon Gli2 overexpression (10T1/2 cells [1]; 10T1/2 cells with retroviral full-length Gli2 vs control virus): rescued the cell-cycle effect; also recorded: rescues the cell cycle effect; cell-cycle distribution of 10T1/2 cells (10T1/2 cells [1]; darinaparsin 0.5 μM vs vehicle, BrdU/7AAD flow cytometry): induces a G0/G1 cell cycle arrest; systemic toxicity ([5]; compared to ATO): significantly lower; tolerated maximum dose compared to ATO ([5]; higher than ATO): 50 fold; side effect on fast cycling cell populations as the bone marrow or intestine ([5]; reported by Tian et al.): no significant side effect

**Q.** With `CS(=O)(=O)c1ccc(C(=O)Nc2ccc(Cl)c(-c3ccccn3)c2)c(Cl)c1` [GDC-0449] as the compound, how does the “fibrosis severity in bleomycin induced lung fibrosis” value (lung) read?
**A.** did not show this effect

**Q.** What does the source list for “siRNA directed against Gli2: siRNA ID s66726, SEQ ID NO: 13 and 14 (chain 1 GGAAAACUUCAACAAUACATT; chain 2 UGUAUUGUUGAAGUUUUCCAG; chemistry not given here)”?
**A.** cell-cycle distribution after siRNA knockdown (10T1/2 cells [1]): G0/G1 arrest; Gli2 expression (10T1/2 cells [2]; [8]): reduced; mRNA and protein levels of Gli1 (10T1/2 cells [2]; [8]): reduced; p21 level (10T1/2 cells [2]; siRNA knockdown, western blot): increased levels; phosphorylated retinoblastoma (Ser780) level (10T1/2 cells [2]; siRNA knockdown, western blot): reduced levels
